Data reported in US20180116220A1, “NOVEL TRIAZOLE DERIVATIVES” (BAYER CROPSCIENCE AKTIENGESELLSCHAFT, priority 2015, published 2018).

Columns and labels:
[1] = LogP by HPLC on reversed phase columns (EEC directive 79/831 Annex V.A8); format: physicochemical
Procedure: [table] If more than one LogP value is available within the same method, all the values are given and separated by “+”. […] Lambda-max-values were determined using UV-spectra from 200 nm to 400 nm and the peak values of the chromatographic signals. Measurement of LogP values was performed as outlined above.

[2] = test system: Phakopsora pachyrhizi; assay: Example S: in vivo preventive Phakopsora test (soybeans); comparison vs. known compounds; conditions: rate of application 5 ppm, evaluated 7 days after inoculation
Procedure: The test is evaluated 7 days after the inoculation.

[3] = test system: Venturia inaequalis; assay: Example R: in vivo preventive Venturia test (apples); comparison vs. known compounds; conditions: rate of application 10 ppm, evaluated 10 days after inoculation
Procedure: • Solvent: 24.5 parts by weight of acetone • 24.5 parts by weight of dimethylacetamide • Emulsifier: 1 part by weight of alkylaryl polyglycol ether
After the spray coating has dried on, the plants are inoculated with an aqueous conidia suspension of the causal agent of apple scab (Venturia inaequalis) and then remain for 1 day in an incubation cabinet at approximately 20° C. and a relative atmospheric humidity of 100%.
The plants are then placed in a greenhouse at approximately 21° C. and a relative atmospheric humidity of approximately 90%.
The test is evaluated 10 days after the inoculation.

[4] = [a] LC-UV, acidic range, 0.1% formic acid in water and acetonitrile as eluent
[5] = [b] LC-UV, neutral range, 0.001 molar ammonium acetate solution in water and acetonitrile as eluent

OC(Cn1cncn1)(c1ccc(F)cc1F)C1(Oc2ccc(Cl)cc2)CC1 (centres unmarked) [Example I-10, 1-[1-(4-chlorophenoxy)cyclopropyl]-1-(2,4-difluorophenyl)-2-(1H-1,2,4-triazol-1-yl)ethanol]
chromatographic logP ([1]; reversed phase HPLC column, [a] LC-UV, acidic range, 0.1% formic acid in water and acetonitrile as eluent): 3.48
Efficacy in % [2]: 95%
Efficacy in % [3]: 100%

Fc1ccc(C2(C3(Oc4c(Cl)cccc4Cl)CC3)CO2)c(F)c1 (centres unmarked) [Example V-19]
LogP [1, 4]: 4.80^[a]

N#Cc1cc(I)ccc1OC1(C2(c3ccc(F)cc3F)CO2)CC1 (centres unmarked) [Example V-13]
LogP [1, 4]: 4.14
LogP [1, 5]: 4.21

Fc1ccc(C2(C3(Oc4ccccc4Br)CC3)CO2)c(F)c1 (centres unmarked) [Example V-5]
LogP [1, 4]: 4.36
LogP [1, 5]: 4.43

Fc1ccc(C2(C3(Oc4ccc(Br)cc4F)CC3)CO2)c(F)c1 (centres unmarked) [Example V-11]
LogP [1, 4]: 4.57
LogP [1, 5]: 4.65

Fc1ccc(C2(C3(Oc4ccc(Br)cc4)CC3)CO2)c(F)c1 (centres unmarked) [Example V-7]
LogP [1, 4]: 4.66
LogP [1, 5]: 4.74

OC(Cn1cncn1)(c1ccc(Cl)cc1F)C1(Oc2ccc(F)cc2F)CC1 (racemic) [Example I-16]
LogP [1, 4]: 3.44^[a]

OC(Cn1cncn1)(c1ccc(F)cc1F)C1(Oc2cccc(Br)c2)CC1 (racemic) [Example I-06]
LogP [1, 4]: 3.54^[a];
LogP [1, 5]: 3.54^[b]

CCCOC(Cn1cncn1)(c1ccc(F)cc1F)C1(Oc2ccc(Cl)cc2)CC1 (racemic) [Example I-32]
LogP [1, 4]: 4.73^[a]

O=C(c1ccc(F)cc1F)C1(Oc2ccc(Br)c(F)c2)CC1 [IV-26]
LogP [1, 4]: 3.99^[a]

OC(Cn1cncn1)(c1ccc(F)cc1F)C1(Oc2ccc(OC(F)(F)F)cc2)CC1 (racemic) [Example I-14]
LogP [1, 4]: 3.70^[a];
LogP [1, 5]: 3.77^[b]

Fc1ccc(C2(C3(Oc4cccc(Br)c4)CC3)CO2)c(F)c1 (centres unmarked) [Example V-6]
LogP [1, 4]: 4.63
LogP [1, 5]: 4.71

Cc1cc(Br)ccc1OC1(C(O)(Cn2cncn2)c2ccc(F)cc2F)CC1 (racemic) [Example I-13]
LogP [1, 4]: 3.99^[a];
LogP [1, 5]: 4.08^[b]

O=C(c1ccc(F)cc1F)C1(Oc2cccc(Cl)c2)CC1 [IV-24]
LogP [1, 4]: 4.34^[a]

COC(Cn1cncn1)(c1ccc(F)cc1F)C1(Oc2c(F)cccc2Cl)CC1 (racemic) [Example I-23]
LogP [1, 4]: 3.78^[a]

OC(Cn1cncn1)(c1ccc(Cl)cc1F)C1(Oc2ccc(Cl)cc2)CC1 (racemic) [Example I-27]
LogP [1, 4]: 3.94^[a]

Cc1cc(Br)ccc1OC1(C(=O)c2ccc(F)cc2F)CC1 [IV-14]
LogP [1, 4]: 4.88
LogP [1, 5]: 4.87

COC(Cn1cncn1)(c1ccc(F)cc1F)C1(Oc2ccc(F)cc2F)CC1 (racemic) [Example I-26]
LogP [1, 4]: 3.44^[a]

C#CCOC(Cn1cncn1)(c1ccc(F)cc1F)C1(Oc2ccc(Cl)cc2)CC1 (racemic) [Example I-31]
LogP [1, 4]: 3.90^[a]

Fc1ccc(C2(C3(Oc4ccc(OC(F)F)cc4)CC3)CO2)c(F)c1 (racemic) [Example V-25]
LogP [1, 4]: 4.24^[a]

O=C(c1ccc(F)cc1F)C1(Oc2cccc(I)c2)CC1 [IV-9]
LogP [1, 4]: 4.50
LogP [1, 5]: 4.53

O=C(c1ccc(F)cc1F)C1(Oc2c(F)cccc2Br)CC1 [IV-20]
LogP [1, 4]: 4.34^[a]

OC(Cn1cncn1)(c1ccc(F)cc1F)C1(Oc2ccc(Cl)cc2)CC1 (single isomer, unassigned) [Example I-41]
LogP [1, 4]: 3.48^[a]

Fc1ccc(C2(C3(Oc4c(F)cccc4Br)CC3)CO2)c(F)c1 (centres unmarked) [Example V-21]
LogP [1, 4]: 4.59^[a]

Fc1ccc(C2(C3(Oc4cccc(I)c4)CC3)CO2)c(F)c1 (centres unmarked) [Example V-9]
LogP [1, 4]: 4.82
LogP [1, 5]: 4.90
